In the NIST ThermoML archive (doi:10.1021/je901092b):
Numbers after ± are expanded uncertainties.

Settings: 101.33 kPa, Liquid; for mass density: Pycnometric method

Structure (SMILES)	viscosity (323.15 K)	mass density (323.15 K)	viscosity (328.15 K)	mass density (328.15 K)	viscosity (333.15 K)	mass density (333.15 K)	viscosity (338.15 K)	mass density (338.15 K)	viscosity (343.15 K)	mass density (343.15 K)	viscosity (348.15 K)	mass density (348.15 K)	viscosity (353.15 K)	mass density (353.15 K)	viscosity (363.15 K)	mass density (363.15 K)	viscosity (373.15 K)	mass density (373.15 K)	viscosity (378.15 K)	mass density (378.15 K)	also measured
CCCCn1cc[n+](C)c1.[I-] [1-butyl-3-methylimidazolium iodide]	134.23 ± 14 mPa·s	1418 ± 10 kg/m3	105.34 ± 8.7 mPa·s	1414 ± 10 kg/m3	81.51 ± 5.3 mPa·s	1406 ± 10 kg/m3	65.85 ± 3.3 mPa·s	1400 ± 10 kg/m3	53.43 ± 2.2 mPa·s	1398 ± 10 kg/m3	44.68 ± 1.9 mPa·s	1396 ± 10 kg/m3	36.52 ± 1.6 mPa·s	1394 ± 10 kg/m3	26.11 ± 0.98 mPa·s	1388 ± 10 kg/m3	20.43 ± 0.64 mPa·s	1382 ± 10 kg/m3	18.1 ± 0.66 mPa·s	1376 ± 10 kg/m3	viscosity (299.15 K): 593.68 ± 130 mPa·s; mass density (299.15 K): 1434 ± 10 kg/m3; viscosity (304.15 K): 442.64 ± 89 mPa·s; mass density (304.15 K): 1432 ± 10 kg/m3; viscosity (308.15 K): 336.95 ± 61 mPa·s; mass density (308.15 K): 1430 ± 10 kg/m3; viscosity (313.15 K): 227.98 ± 34 mPa·s; mass density (313.15 K): 1426 ± 10 kg/m3; viscosity (318.15 K): 173.86 ± 21 mPa·s; mass density (318.15 K): 1422 ± 10 kg/m3; viscosity (358.15 K): 30.4 ± 1.2 mPa·s; mass density (358.15 K): 1392 ± 10 kg/m3; viscosity (368.15 K): 22.5 ± 0.76 mPa·s; mass density (368.15 K): 1386 ± 10 kg/m3; viscosity (383.15 K): 15.22 ± 0.61 mPa·s; mass density (383.15 K): 1370 ± 10 kg/m3; viscosity (388.15 K): 13.11 ± 0.52 mPa·s; mass density (388.15 K): 1360 ± 10 kg/m3
CCCCCCn1cc[n+](C)c1.[I-] [1-hexyl-3-methylimidazolium iodide]	245.55 ± 37 mPa·s	1318 ± 10 kg/m3	190.14 ± 24 mPa·s	1316 ± 10 kg/m3	146.47 ± 16 mPa·s	1314 ± 10 kg/m3	116.13 ± 10 mPa·s	1312 ± 10 kg/m3	88.04 ± 6.1 mPa·s	1310 ± 10 kg/m3	73.85 ± 3.8 mPa·s	1308 ± 10 kg/m3	60.63 ± 2.5 mPa·s	1306 ± 10 kg/m3	42.23 ± 1.6 mPa·s	1302 ± 10 kg/m3	30.45 ± 1.2 mPa·s	1298 ± 10 kg/m3	26.62 ± 0.93 mPa·s	1296 ± 10 kg/m3	viscosity (305.15 K): 809.79 ± 200 mPa·s; mass density (305.15 K): 1326 ± 10 kg/m3; viscosity (309.15 K): 600.07 ± 140 mPa·s; mass density (309.15 K): 1324 ± 10 kg/m3; viscosity (314.15 K): 432.98 ± 87 mPa·s; mass density (314.15 K): 1322 ± 10 kg/m3; viscosity (318.15 K): 334.25 ± 59 mPa·s; mass density (318.15 K): 1320 ± 10 kg/m3; viscosity (359.15 K): 48.47 ± 2.1 mPa·s; mass density (359.15 K): 1304 ± 10 kg/m3; viscosity (383.15 K): 23.19 ± 0.82 mPa·s; mass density (383.15 K): 1294 ± 10 kg/m3; viscosity (388.15 K): 20.3 ± 0.74 mPa·s; mass density (388.15 K): 1292 ± 10 kg/m3
CCCCCCCC[n+]1ccn(C)c1.[I-] [1-methyl-3-octyl-1H-imidazolium iodide]	296.66 ± 50 mPa·s	1240 ± 10 kg/m3	229.09 ± 33 mPa·s	1234 ± 10 kg/m3	174.35 ± 21 mPa·s	1230 ± 10 kg/m3	138.53 ± 14 mPa·s	1228 ± 10 kg/m3	104.81 ± 8.5 mPa·s	1224 ± 10 kg/m3	89.02 ± 5.6 mPa·s	1218 ± 10 kg/m3	73.17 ± 4 mPa·s	1212 ± 10 kg/m3	49.6 ± 1.9 mPa·s	1206 ± 10 kg/m3	35.57 ± 1.4 mPa·s	1200 ± 10 kg/m3	31.43 ± 1.1 mPa·s	1196 ± 10 kg/m3	viscosity (300.15 K): 1306.3 ± 390 mPa·s; mass density (300.15 K): 1258 ± 10 kg/m3; viscosity (303.15 K): 981.11 ± 260 mPa·s; mass density (303.15 K): 1254 ± 10 kg/m3; viscosity (308.15 K): 726.71 ± 180 mPa·s; mass density (308.15 K): 1250 ± 10 kg/m3; viscosity (313.15 K): 524.3 ± 110 mPa·s; mass density (313.15 K): 1246 ± 10 kg/m3; viscosity (319.15 K): 404.37 ± 77 mPa·s; mass density (319.15 K): 1242 ± 10 kg/m3; viscosity (358.15 K): 58.41 ± 2.5 mPa·s; mass density (358.15 K): 1210 ± 10 kg/m3; viscosity (368.15 K): 43.21 ± 1.7 mPa·s; mass density (368.15 K): 1204 ± 10 kg/m3
